Laboratory results published in patent US20100298141A1, “SUBSTITUTED PYRIDINE N-OXIDE HERBICIDES” (E. I. DU PONT DE NEMOURS AND COMPANY, priority 2007, published 2010).

Columns and labels:
Assay in all cases: Test F preemergence test
Surinam grass = format: in vivo, Brachiaria decumbens; conditions: scale 0 to 100
Excerpt: (§1) Seeds of plant species selected from bermudagrass (Cynodon dactylon), Surinam grass (Brachiaria decumbens), large crabgrass (Digitaria sanguinalis), green foxtail (Setaria viridis), goosegrass (Eleusine indica), johnsongrass (Sorghum halepense), kochia (Kochia scoparia), pitted morningglory (Ipomoea lacunosa), purple nutsedge (Cyperus rotundus), common ragweed (Ambrosia elation), mustard (Brassica nigra), guineagrass (Panicum maximum), […] (Paspalum dilatatum), barnyardgrass (Echinochloa crus-galli), southern sandbur (Cenchrus echinatus), common sowthistle (Sonchus oleraceous), prickly […] spinosa), Italian ryegrass (Lolium multiflorum), common purslane (Portulaca oleracea), broadleaf signalgrass (Brachiaria platyphylla), common groundsel (Senecio vulgaris), common chickweed (Stellaria media), Virginia dayflower (Commelina virginica), annual bluegrass (Poa annua), naked crabgrass (Digitaria nuda), […] cochinchinensis), quackgrass (Elytrigia repens), Canada horseweed (Conyza canadensis), field bindweed (Convolvulus arvensis), […] (Bidens bipinnata), common mallow (Malva sylvestris), Russian thistle (Salsola kali), and sugarcane (Saccharum officinarum) were planted and treated preemergence with test chemicals formulated in a non-phytotoxic solvent mixture which included a surfactant. At a different time, sugarcane was treated with postemergence applications of some of the test chemicals formulated in the same manner. Plants were approximately 3- to 4-leaf stage for the postemergence treatments. Treated plants and controls were maintained in a greenhouse for 14 to 21 days, after which time all species were compared to controls and visually evaluated. […] A dash (-) response means no test result.

large crabgrass = format: in vivo, Digitaria sanguinalis; conditions: scale 0 to 100
Excerpt: as §1

kochia = format: in vivo, Kochia scoparia; conditions: scale 0 to 100; for Plant response rating, Kochia: Preemergence
Excerpt: as §1

mustard = format: in vivo, Brassica nigra; conditions: scale 0 to 100
Excerpt: as §1

guineagrass = format: in vivo, Panicum maximum; conditions: scale 0 to 100
Excerpt: as §1

dallisgrass = format: in vivo, Paspalum dilatatum; conditions: scale 0 to 100
Excerpt: as §1

barnyardgrass = format: in vivo, Echinochloa crus-galli
Excerpt: as §1

southern sandbur = format: in vivo, Cenchrus echinatus; conditions: scale 0 to 100
Excerpt: as §1

Italian ryegrass = format: in vivo, Lolium multiflorum; conditions: scale 0 to 100
Excerpt: as §1

common purslane = format: in vivo, Portulaca oleracea; conditions: scale 0 to 100
Excerpt: as §1

common groundsel = format: in vivo, Senecio vulgaris; conditions: scale 0 to 100
Excerpt: as §1

annual bluegrass = format: in vivo, Poa annua; conditions: scale 0 to 100
Excerpt: as §1

quackgrass = format: in vivo, Elytrigia repens; conditions: scale 0 to 100
Excerpt: as §1

field bindweed = format: in vivo, Convolvulus arvensis; conditions: scale 0 to 100
Excerpt: as §1

common mallow = format: in vivo, Malva sylvestris; conditions: scale 0 to 100
Excerpt: as §1

For `Cn1nc(C(F)(F)F)c(C[S+]([O-])c2ccc(Cl)c[n+]2[O-])c1OCC(F)F` (centres unmarked) [Compound 85], which “Plant response rating, Surinam Grass” value (Surinam grass; 16 g ai/ha, preemergence) is on record?
The value was 60.

And the “Surinam Grass plant response rating” value (Surinam grass; 125 g ai/ha, preemergence)?
The value was 100.

What about the “Plant response rating, Surinam Grass” value (Surinam grass; Preemergence, 62 g ai/ha) of the same compound?
Its value is 100.

What about the “Plant response rating, Surinam Grass” value (Surinam grass; Preemergence, 31 g ai/ha) of the same compound?
The value was 100.

And the “Plant response rating, Crabgrass, Large” value (large crabgrass; 16 g ai/ha, preemergence)?
The value was 60.

What about the “Crabgrass, Large plant response rating” value (large crabgrass; 125 g ai/ha, preemergence) of the same compound?
Its value is 90.

And the “Plant response rating, Crabgrass, Large” value (large crabgrass; Preemergence, 62 g ai/ha)?
Its value is 90.

And the “Plant response rating, Crabgrass, Large” value (large crabgrass; Preemergence, 31 g ai/ha)?
Its value is 70.

And the “Kochia plant response rating” value (kochia; 125 g ai/ha, preemergence)?
Its value is 100.

What about the “Plant response rating, Kochia” value (kochia; 62 g ai/ha) of the same compound?
The value was 100.

What about the “Plant response rating, Kochia” value (kochia; 31 g ai/ha) of the same compound?
Its value is 25.

What about the “Plant response rating, Black Mustard” value (mustard; 16 g ai/ha, preemergence) of the same compound?
The value was 40.

And the “Black Mustard plant response rating” value (mustard; 125 g ai/ha, preemergence)?
The value was 60.

And the “Plant response rating, Black Mustard” value (mustard; Preemergence, 62 g ai/ha)?
Its value is 40.

And the “Plant response rating, Black Mustard” value (mustard; Preemergence, 31 g ai/ha)?
Its value is 40.

What about the “Plant response rating, Guineagrass” value (guineagrass; 16 g ai/ha, preemergence) of the same compound?
Its value is 50.

What about the “Guineagrass plant response rating” value (guineagrass; 125 g ai/ha, preemergence) of the same compound?
Its value is 100.

What about the “Plant response rating, Guineagrass” value (guineagrass; Preemergence, 62 g ai/ha) of the same compound?
The value was 98.

And the “Plant response rating, Guineagrass” value (guineagrass; Preemergence, 31 g ai/ha)?
Its value is 98.

And the “Plant response rating, Dallisgrass” value (dallisgrass; 16 g ai/ha, preemergence)?
The value was 15.

And the “Dallisgrass plant response rating” value (dallisgrass; 125 g ai/ha, preemergence)?
The value was 98.

And the “Plant response rating, Dallisgrass” value (dallisgrass; Preemergence, 62 g ai/ha)?
Its value is 85.

And the “Plant response rating, Dallisgrass” value (dallisgrass; Preemergence, 31 g ai/ha)?
The value was 75.

And the “Plant response rating, Barnyardgrass” value (barnyardgrass; 16 g ai/ha, preemergence, scale 0 to 100 (0 no effect, 100 complete control))?
The value was 50.

What about the “Barnyardgrass plant response rating” value (barnyardgrass; 125 g ai/ha, preemergence, scale 0 to 100) of the same compound?
Its value is 100.

What about the “Plant response rating, Barnyardgrass” value (barnyardgrass; Preemergence, 62 g ai/ha, scale 0 to 100) of the same compound?
Its value is 90.

What about the “Plant response rating, Barnyardgrass” value (barnyardgrass; Preemergence, 31 g ai/ha, scale 0 to 100) of the same compound?
The value was 80.

What about the “Plant response rating, Sandbur” value (southern sandbur; 16 g ai/ha, preemergence) of the same compound?
Its value is 10.

What about the “Sandbur plant response rating” value (southern sandbur; 125 g ai/ha, preemergence) of the same compound?
The value was 100.

What about the “Plant response rating, Sandbur” value (southern sandbur; Preemergence, 62 g ai/ha) of the same compound?
The value was 100.

What about the “Plant response rating, Sandbur” value (southern sandbur; Preemergence, 31 g ai/ha) of the same compound?
Its value is 70.

What about the “Plant response rating, Ryegrass, Italian” value (Italian ryegrass; 16 g ai/ha, preemergence) of the same compound?
Its value is 65.

What about the “Ryegrass, Italian plant response rating” value (Italian ryegrass; 125 g ai/ha, preemergence) of the same compound?
The value was 100.

And the “Plant response rating, Ryegrass, Italian” value (Italian ryegrass; Preemergence, 62 g ai/ha)?
The value was 100.

What about the “Plant response rating, Ryegrass, Italian” value (Italian ryegrass; Preemergence, 31 g ai/ha) of the same compound?
Its value is 65.

And the “Plant response rating, Purslane” value (common purslane; 16 g ai/ha, preemergence)?
The value was 0.

What about the “Purslane plant response rating” value (common purslane; 125 g ai/ha, preemergence) of the same compound?
The value was 60.

And the “Plant response rating, Purslane” value (common purslane; Preemergence, 62 g ai/ha)?
The value was 60.

And the “Plant response rating, Purslane” value (common purslane; Preemergence, 31 g ai/ha)?
Its value is 25.

And the “Plant response rating, Groundsel” value (common groundsel; 16 g ai/ha, preemergence)?
Its value is 0.

What about the “Groundsel plant response rating” value (common groundsel; 125 g ai/ha, preemergence) of the same compound?
The value was 65.

And the “Plant response rating, Groundsel” value (common groundsel; Preemergence, 62 g ai/ha)?
Its value is 0.

What about the “Plant response rating, Groundsel” value (common groundsel; Preemergence, 31 g ai/ha) of the same compound?
Its value is 0.

And the “Plant response rating, Bluegrass” value (annual bluegrass; 16 g ai/ha, preemergence)?
The value was 75.

And the “Bluegrass plant response rating” value (annual bluegrass; 125 g ai/ha, preemergence)?
Its value is 100.

And the “Plant response rating, Bluegrass” value (annual bluegrass; Preemergence, 62 g ai/ha)?
Its value is 95.

And the “Plant response rating, Bluegrass” value (annual bluegrass; Preemergence, 31 g ai/ha)?
Its value is 95.

What about the “Plant response rating, Quackgrass” value (quackgrass; 16 g ai/ha, preemergence) of the same compound?
The value was 20.

What about the “Quackgrass plant response rating” value (quackgrass; 125 g ai/ha, preemergence) of the same compound?
The value was 95.

And the “Plant response rating, Quackgrass” value (quackgrass; Preemergence, 62 g ai/ha)?
The value was 80.

And the “Plant response rating, Quackgrass” value (quackgrass; Preemergence, 31 g ai/ha)?
The value was 65.

And the “Plant response rating, Field Bindweed” value (field bindweed; 16 g ai/ha, preemergence)?
Its value is 0.

And the “Field Bindweed plant response rating” value (field bindweed; 125 g ai/ha, preemergence)?
The value was 35.

What about the “Plant response rating, Field Bindweed” value (field bindweed; Preemergence, 62 g ai/ha) of the same compound?
The value was 20.

What about the “Plant response rating, Field Bindweed” value (field bindweed; Preemergence, 31 g ai/ha) of the same compound?
The value was 0.

And the “Plant response rating, Mallow” value (common mallow; 16 g ai/ha, preemergence)?
Its value is 0.

And the “Mallow plant response rating” value (common mallow; 125 g ai/ha, preemergence)?
The value was 98.

And the “Plant response rating, Mallow” value (common mallow; Preemergence, 62 g ai/ha)?
Its value is 98.

And the “Plant response rating, Mallow” value (common mallow; Preemergence, 31 g ai/ha)?
Its value is 50.
